According to the CheMixHub ionic liquid set:

Test: xn = mol fraction of the nth substance listed

CCCCCCCCn1cc[n+](CCCCCCCC)c1.O=S(=O)([N-]S(=O)(=O)C(F)(F)F)C(F)(F)F + O
100 kPa, x2 = 0.1246
Settings | viscosity [mPa·s]
303.15 K | 92.9
308.15 K | 73.29
358.15 K | 13.27

NCC(O)CO (stereo not drawn) + CC[n+]1ccn(C)c1.[Cl-]
101 kPa, x2 = 0.667
Settings | viscosity [mPa·s]
298.15 K | 321
303.15 K | 230
313.15 K | 125.5
323.15 K | 70.2
333.15 K | 44.6

CS(C)=O + Cn1cc[n+](CCCN)c1.F[B-](F)(F)F
Settings | viscosity [mPa·s]
328.15 K, 101 kPa, x2 = 0 | 1.249

C[N+](C)(CCCS(=O)(=O)O)C1CCCCC1.Cc1ccc(S(=O)(=O)[O-])cc1 + O
101 kPa
Settings | viscosity [mPa·s]
303.15 K, x1 = 1 | 113700
308.15 K, x1 = 0.06028 | 6.925
308.15 K, x1 = 1 | 56930
313.15 K, x1 = 0.01059 | 1.118
313.15 K, x1 = 0.06028 | 6
318.15 K, x1 = 0.01059 | 1.007
318.15 K, x1 = 0.1459 | 38.93
328.15 K, x1 = 0.01059 | 0.8334
328.15 K, x1 = 0.02771 | 1.636
328.15 K, x1 = 0.06028 | 3.944

CCCC[n+]1ccn(C)c1.[Br-] + N[C@@H](Cc1ccccc1)C(=O)O + O
viscosity [mPa·s], 101.3 kPa
Settings | 293.15 K | 298.15 K | 303.15 K | 308.15 K | 313.15 K
x2 = 0, x1 = 0.0007203 | – | – | – | – | 0.67
x2 = 0.0003641, x1 = 0.00072 | 1 | 0.97 | 0.88 | 0.77 | 0.68
x2 = 0.0003648, x1 = 0.001439 | 0.99 | 0.9 | 0.8 | 0.66 | 0.59
x2 = 0.0007259, x1 = 0.0007198 | 1.02 | 0.98 | 0.89 | 0.78 | 0.69
x2 = 0.0007309, x1 = 0.001438 | 1 | 0.91 | 0.81 | 0.68 | 0.6
x2 = 0.001089, x1 = 0.0007195 | 1.03 | 0.99 | 0.91 | 0.8 | 0.7
x2 = 0.001097, x1 = 0.001438 | 1.02 | 0.92 | 0.82 | 0.69 | 0.61
x2 = 0.00145, x1 = 0.0007192 | 1.04 | 1 | 0.92 | 0.81 | 0.72
x2 = 0.001463, x1 = 0.001437 | 1.03 | 0.93 | 0.83 | 0.7 | 0.63
x2 = 0.001814, x1 = 0.000719 | 1.05 | 1.02 | 0.93 | 0.82 | 0.73
x2 = 0.001827, x1 = 0.001437 | 1.04 | 0.95 | 0.85 | 0.71 | 0.64
x2 = 0.002174, x1 = 0.0007187 | 1.07 | 1.03 | 0.95 | 0.84 | 0.74
x2 = 0.002193, x1 = 0.001436 | 1.06 | 0.96 | 0.86 | 0.73 | 0.65
x2 = 0.002537, x1 = 0.0007185 | 1.08 | 1.04 | 0.96 | 0.85 | 0.76
x2 = 0.002556, x1 = 0.001436 | 1.07 | 0.97 | 0.87 | 0.74 | 0.67

CCCC[n+]1ccn(C)c1.[Br-] + O=C1O[C@H]([C@@H](O)CO)C(O)=C1O + O
viscosity [mPa·s], 100 kPa
Settings | 293.15 K | 298.15 K | 303.15 K | 308.15 K | 313.15 K | 318.15 K
x2 = 0, x1 = 0.0009002 | 1.033 | 0.918 | 0.823 | 0.753 | 0.676 | 0.618
x2 = 0, x1 = 0.001799 | 1.057 | 0.938 | 0.84 | 0.758 | 0.689 | 0.631
x2 = 0, x1 = 0.002696 | 1.069 | 1 | 0.905 | 0.795 | 0.749 | 0.68
x2 = 0.0003657, x1 = 0.0008999 | 1.04 | 0.925 | 0.831 | 0.761 | 0.684 | 0.626
x2 = 0.0003693, x1 = 0.001798 | 1.064 | 0.945 | 0.847 | 0.765 | 0.696 | 0.638
x2 = 0.000373, x1 = 0.002695 | 1.073 | 1.005 | 0.912 | 0.802 | 0.756 | 0.687
x2 = 0.0007293, x1 = 0.0008995 | 1.048 | 0.933 | 0.839 | 0.769 | 0.691 | 0.633
x2 = 0.0007366, x1 = 0.001797 | 1.071 | 0.952 | 0.854 | 0.772 | 0.703 | 0.645
x2 = 0.0007401, x1 = 0.002694 | 1.08 | 1.013 | 0.919 | 0.808 | 0.763 | 0.695
x2 = 0.001093, x1 = 0.0008992 | 1.055 | 0.94 | 0.845 | 0.775 | 0.697 | 0.639
x2 = 0.0011, x1 = 0.001797 | 1.081 | 0.961 | 0.862 | 0.78 | 0.71 | 0.651
x2 = 0.001111, x1 = 0.002693 | 1.088 | 1.02 | 0.927 | 0.816 | 0.77 | 0.701
x2 = 0.001456, x1 = 0.0008989 | 1.063 | 0.947 | 0.851 | 0.781 | 0.703 | 0.644
x2 = 0.001467, x1 = 0.001796 | 1.09 | 0.969 | 0.869 | 0.786 | 0.716 | 0.657
x2 = 0.001485, x1 = 0.002692 | 1.097 | 1.029 | 0.935 | 0.823 | 0.777 | 0.708
x2 = 0.001819, x1 = 0.0008986 | 1.071 | 0.954 | 0.859 | 0.788 | 0.71 | 0.65
x2 = 0.001833, x1 = 0.001795 | 1.097 | 0.976 | 0.876 | 0.793 | 0.723 | 0.664
x2 = 0.001851, x1 = 0.002691 | 1.106 | 1.038 | 0.941 | 0.83 | 0.785 | 0.715
x2 = 0.002183, x1 = 0.0008982 | 1.079 | 0.961 | 0.865 | 0.795 | 0.717 | 0.657
x2 = 0.002201, x1 = 0.001795 | 1.104 | 0.982 | 0.882 | 0.798 | 0.728 | 0.669
x2 = 0.002221, x1 = 0.00269 | 1.114 | 1.045 | 0.948 | 0.837 | 0.792 | 0.722

CCCC[n+]1ccn(C)c1.[Br-] + NC(N)=O + O
298.15 K, 100 kPa
Settings | viscosity [mPa·s]
x2 = 0, x3 = 0.9487 | 2.21
x2 = 0.008492, x3 = 0.9402 | 2.29
x2 = 0.01695, x3 = 0.9318 | 2.29
x2 = 0.02496, x3 = 0.9237 | 2.28
x2 = 0.02678, x3 = 0.9219 | 2.36
x2 = 0.03322, x3 = 0.9155 | 2.36
x2 = 0.04109, x3 = 0.9076 | 2.41

CCCC[N+](CCCC)(CCCC)CCCC.[Cl-] + O=C(O)[C@@H]1CCCN1
100 kPa
Settings | electrical conductivity, 313.15 K [S/m] | electrical conductivity, 323.15 K [S/m] | electrical conductivity, 333.15 K [S/m] | electrical conductivity, 343.15 K [S/m] | electrical conductivity, 353.15 K [S/m] | viscosity, 313.15 K [mPa·s] | viscosity, 323.15 K [mPa·s] | viscosity, 333.15 K [mPa·s] | viscosity, 343.15 K [mPa·s] | viscosity, 353.15 K [mPa·s]
x1 = 0.875 | 0.0343 | 0.0411 | 0.065 | 0.0965 | 0.127 | 389 | 172 | 97.5 | 54.2 | 32.1
x1 = 0.8889 | 0.0137 | 0.0249 | 0.0423 | 0.0735 | 0.108 | 901 | 306 | 171 | 85 | 53.8
x1 = 0.9 | 0.0446 | 0.0612 | 0.0869 | 0.11 | 0.142 | 1051 | 534 | 233 | 131 | 77.3

CCCCCCCCCCCC[N+](C)(C)Cc1ccccc1.[Cl-] + C[C@H](N)C(=O)O + O
electrical conductivity [S/m], 101 kPa
Settings | 293.15 K | 298.15 K | 303.15 K | 308.15 K
x2 = 0.0009017, x1 = 0.000273 | 0.0801 | 0.0901 | 0.101 | 0.112
x2 = 0.0009017, x1 = 0.0002923 | 0.0832 | 0.0935 | 0.104 | 0.117
x2 = 0.0009017, x1 = 0.00031 | 0.0859 | 0.0967 | 0.108 | 0.121
x2 = 0.0009017, x1 = 0.0003245 | 0.0882 | 0.0994 | 0.111 | 0.124
x2 = 0.0009018, x1 = 0.0001745 | 0.0636 | 0.0709 | 0.0786 | 0.0867
x2 = 0.0009018, x1 = 0.0002014 | 0.0686 | 0.0767 | 0.0852 | 0.0943
x2 = 0.0009018, x1 = 0.0002282 | 0.0731 | 0.0819 | 0.0911 | 0.101
x2 = 0.0009018, x1 = 0.0002515 | 0.0769 | 0.0862 | 0.096 | 0.107
x2 = 0.0009019, x1 = 5.732e-05 | 0.0227 | 0.0255 | 0.0283 | 0.0312
x2 = 0.0009019, x1 = 7.956e-05 | 0.0312 | 0.0349 | 0.0388 | 0.0427
x2 = 0.0009019, x1 = 0.0001004 | 0.0389 | 0.0437 | 0.0484 | 0.0533
x2 = 0.0009019, x1 = 0.0001231 | 0.0474 | 0.053 | 0.0588 | 0.0647
x2 = 0.0009019, x1 = 0.0001486 | 0.0565 | 0.0633 | 0.0701 | 0.077
x2 = 0.001773, x1 = 8.528e-05 | 0.033 | 0.037 | 0.041 | 0.0452
x2 = 0.001773, x1 = 0.0001054 | 0.0404 | 0.0453 | 0.0502 | 0.0553
x2 = 0.001773, x1 = 0.0001263 | 0.0481 | 0.0538 | 0.0597 | 0.0658
x2 = 0.001773, x1 = 0.00015 | 0.0564 | 0.063 | 0.0698 | 0.077
x2 = 0.001773, x1 = 0.000176 | 0.063 | 0.0702 | 0.0778 | 0.086
x2 = 0.001773, x1 = 0.0002016 | 0.0678 | 0.0756 | 0.084 | 0.0932
x2 = 0.001773, x1 = 0.0002266 | 0.0719 | 0.0805 | 0.0896 | 0.0995
x2 = 0.001773, x1 = 0.0002493 | 0.0756 | 0.0847 | 0.0946 | 0.105
x2 = 0.001773, x1 = 0.0002699 | 0.0789 | 0.0885 | 0.099 | –
x2 = 0.001773, x1 = 0.0002888 | 0.082 | 0.0924 | 0.103 | –
x2 = 0.001773, x1 = 0.0003053 | 0.0849 | 0.0956 | 0.107 | –
x2 = 0.001773, x1 = 0.0003178 | 0.0873 | 0.0979 | 0.11 | –
x2 = 0.001774, x1 = 6.278e-05 | 0.0246 | 0.0276 | 0.0306 | 0.0337
